Measurements as given in patent US20230140216A1, “COMBINATION THERAPY FOR TREATING MPS1” (GAIN THERAPEUTICS SA, priority 2020, published 2023).

Experiments:
[1] = tested on: Patient-derived fibroblasts; assay: Enzyme enhancement activity in combination with rhIDUA in patient-derived fibroblasts; type: cell-based, human
Procedure: Patient-derived fibroblasts were seeded at 4×10^4 cells per well in 12-well cell culture plates in Dulbecco’s Modified Eagle’s Media (DMEM) supplemented with 10% of fetal bovine serum (FBS), 1% penicillin/streptomycin (P/S) (Thermo Fisher Scientific, Waltham, MA, USA) and incubated at 37° C., 5% CO2 overnight for cell attachment. Subsequently, cells were incubated in the absence or presence of the compounds and/or 1.25 nM recombinant human α-L-iduronidase protein (obtained in the Institute of Biotechnology and Biomedicine in the UAB) for 4 days. After incubation, cells were washed with phosphate-buffered saline (“PBS”) and detached using Trypsin-EDTA solution (Sigma Aldrich, St. Louis, MO, USA) to prepare cell pellets. The pellets were stored at -80° C. until activity assays were performed. α-L-iduronidase activity in cell lysates was measured by using 4-methylumbelliferyl alpha-L-iduronide substrate (Glycosynth, Warrington, UK). Briefly, lysates were resuspended in 25 µL of 0.9% NaCl containing 0.01% triton X-100 lysis buffer to promote membrane disruption. The cell suspension was sonicated and centrifuged to remove insoluble materials. Then, lysates were mixed with 25 µL of 200 µM 4-MU- alpha-L-iduronide substrate in 0.4 M sodium formate pH 3.5 0.2% triton X-100 buffer for 60 min at 37° C. The reaction was terminated by adding 200 µL of 0.5 M Glycine/0.3M NaOH buffer pH=10. The liberated 4-MU was measured on a Glomax® Discover Microplate Reader from Promega with excitation at 340 nm and emission at 460 nm. Protein quantification was determined using Pierce BCA Protein Assay Kit (Thermo Fisher Scientific, Waltham, MA, USA). Measurements were interpolated in a 4-MU standard curve and normalized by protein quantity.
Compound A increases uptake of rhIDUA protein and its enzymatic activity under a wide range of conditions (rhIDUA concentration and cell-types). Benefits are particularly evident at longer incubation times (4 days).

[2] = In vivo safety / IV maximum tolerated dose
[3] = target: T1, Aldurazyme (laronidase) IDUA activity in bone joint cartilage (Homo sapiens, UniProt P35475); assay: IDUA assay in bone joint cartilage after i.v. Aldurazyme with or without compound; type: in vivo, C57BL/6 male mice; conditions: mice, compound i.v. + Aldurazyme 1.2 mg/kg i.v.
T1 construct: purchased Aldurazyme; host or cells: administered i.v. to C57BL/6 male mice
T1 sequence (P35475 26-653 limits assumed): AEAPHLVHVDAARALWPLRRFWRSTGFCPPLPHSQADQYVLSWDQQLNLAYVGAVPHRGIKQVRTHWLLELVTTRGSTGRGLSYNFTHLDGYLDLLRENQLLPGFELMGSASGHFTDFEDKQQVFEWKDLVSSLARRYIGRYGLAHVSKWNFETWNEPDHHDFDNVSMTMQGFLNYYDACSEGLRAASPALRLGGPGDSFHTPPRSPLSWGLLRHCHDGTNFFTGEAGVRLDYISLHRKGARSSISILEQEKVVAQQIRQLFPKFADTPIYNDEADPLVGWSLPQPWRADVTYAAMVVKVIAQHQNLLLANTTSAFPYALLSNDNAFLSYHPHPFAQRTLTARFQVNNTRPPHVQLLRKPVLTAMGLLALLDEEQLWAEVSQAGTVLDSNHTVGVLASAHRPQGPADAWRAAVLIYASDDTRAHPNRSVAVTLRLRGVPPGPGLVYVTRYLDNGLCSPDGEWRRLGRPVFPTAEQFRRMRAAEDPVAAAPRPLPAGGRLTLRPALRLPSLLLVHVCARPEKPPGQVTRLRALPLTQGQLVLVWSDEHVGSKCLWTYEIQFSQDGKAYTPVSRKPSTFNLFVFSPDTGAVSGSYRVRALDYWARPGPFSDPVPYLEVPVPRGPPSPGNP
Procedure: Evaluation of IDUA activity in mouse bone joint cartilage samples obtained from BIO-PCY-19-025 study, where C57BL/6 male mice were administered with 1.2 mg/kg Aldurazyme (i.v. bolus administration) in the presence and absence of Compound A.
Groups Details: • G1: Vehicle 2 +Aldurazyme (1.2 mg/kg,i.v.,) QD×1(n=6) [vehicle 2:NMP (5%) + Solutol HS-15 (5%) + Normal saline (45%) + PEG-400 (45%)]; • G2: Compound A (5 mg/kg, i.v.) + Aldurazyme (1.2 mg/kg, i.v.) QD x 1 (n=6); • G3: Compound A (10 mg/kg, i.v.) + Aldurazyme (1.2 mg/kg, i.v.) QD x 1 (n=6); • G4: Compound A (20 mg/kg, i.v.) + Aldurazyme (1.2 mg/kg, i.v.) QD x 1 (n=6); and • G5: Naïve Control (n=6).
Bone joint cartilage samples from mice were collected at indicated time points. Tissues were homogenized in RIPA buffer, protein was extracted was diluted in water. Total protein was estimated using Bradford reagent. 25 µl of tissue homogenate and plasma samples were added to 25 µl of 0.18 mM of 4 MUI substrate and incubated at 37° C. for 30 min. Reaction was terminated using 200 µl of stop solution (0.3 M Glycine and 0.2 M sodium carbonate, pH 10.4). Plate was read at excitation 355 nm and emission 460 nm. […]
IDUA activity was assessed from 4-MU standard curve. […] Final IDUA enzyme activity was expressed as nmols/mg of protein/hr. Data was analyzed using GraphPad prism software with one way ANOVA followed by Dunnett’s comparison test. […]

## CCN(CC(=O)Nc1c(Cl)cccc1Cl)Cc1nc2ccsc2c(=O)[nH]1 [Compound A]
[1]; 96h
  activity across a panel of patient-derived fibroblasts: active across a panel of patient-derived fibroblasts
  amount of α-L-iduronidase in fibroblasts: increases the amount of α-L-iduronidase in fibroblasts
[1]; Homo sapiens, Fibroblast, fibroblasts, 96h, co-administration with rhIDUA, read-out: cell-based EC50 (IDUA activity/uptake with rhIDUA)
  EC50: 16 µM
[1]; Hurler-Scheie fibroblasts, 50 µM compound, 96h, vs. single agent
  IDUA cell uptake on co-administration: marked increase of IDUA cell uptake
[1]; fibroblasts
  effect versus incubation time: increases at longer incubation times
[2]; i.v., all doses tested
  safety at tested doses: safe at all doses tested
[2]; mouse, in vivo, iv
  MTD: 45 mg/kg
[3]
  IDUA enzymatic activity in bone joint cartilage: increases IDUA enzymatic activity in a panel of tissues
